Measurements: PMC2074590 (British Journal of Cancer, 1996)
“Also recorded” adds a separate entry of the source. Read-outs that look alike come from different tables or passages of the source.

Assays:
[1] = test system: endometrial proliferation; design: method as in Thomas et al., 1993; details: short-term studies in women, at serum concentrations similar to the present study; ref Thomas et al., 1993; cited from earlier work
[2] = test system: serum FSH, LH, prolactin, SHBG; test: Serum FSH, LH, prolactin and SHBG before and during treatment; type: in vivo, human
Description: (§1) Bridsh Journal of Cancer (1996) 74, 300-308 ? […] The agent was administered as a monthly depot intramuscular injection. […] The study was approved by the ethics committees of each clinical centre. Patients were eligible for the study if they were post- menopausal and age less than 81 years, with histologically verified breast cancer. […] Patients were excluded if they had serious intercurrent disease, a WHO performance status of greater than 2, and a life expectancy of less than 3 months or had received previous cytotoxic chemotherapy for advanced breast cancer. […] Patients 5-19 received 250 mg month-1 i.m. from the outset. […] Tumour response to therapy was evaluated according to UICC criteria (Hayward et al., 1977). To qualify for the 'no change' category, tumour growth had to stabilise for more than 6 months (Howell et al., 1988; Robertson et al., 1989). Body weight was recorded at each monthly review in the majority of patients. […] The procedure was applied after solid base clean up of a diethyl ether/hexane extract of serum. The study limit of quantification was 0.68 ng ml-'. […] Gonadotrophins follicle-stimulating hormone and lutenising hormone (FSH and LH) and SHBG were measured by RIA in the Regional Radioimmunoassay Laboratory of the University Hospital of South Manchester. Prolactin was measured by immunoradiometric assay using reagents supplied by Netria. Total cholesterol levels were determined enzymatically using a commercially available reagent (Diamed, Switzerland). Triglyceride levels were determined by the glyceryl phosphate oxidase-peroxidase-antiperox- idase method using a commercially available kit (Boehringer Mannheim, Germany). High-density lipoprotein (HDL) cholesterol levels were measured after pretreatment of the serum samples with buffered magnesium phosphotungstate, which selectively precipitates low-density lipoprotein (LDL) cholesterol, very low-density lipoprotein (VLDL) cholesterol and chylomicrons, leaving HDL cholesterol in the super- natant. Serum levels of LDL cholesterol were calculated using the Friedewald equation (Friedewald et al., 1972). Endometrial assessment Endometrial thickness was measured in transverse section by transabdominal ultrasound using a Siemens Sonoline SL2 with a 3.5 MHz sector probe. Baseline and repeat scans at 3-6 monthly intervals were performed in five patients. […] Pharmacokinectic data were analysed using para- metric statistics. Data relating to body weight, serum gonadotrophin, SHBG and lipid levels were analysed using non-parametric statistics. The null hypothesis was rejected at a probability level of P<0.05. […] However, samples were not available between day 2 and day 8.

[3] = Side-effects, local and systemic drug tolerability; type: in vivo, human
Description: as §1

[4] = Serum concentrations of ICI 182780 by radioimmunoassay (pharmacokinetics of monthly i.m. depot); type: in vivo, human; details: for Cmax: human, serum
Description: as §1

[5] = 250 mg monthly i.m., first month
[6] = 250 mg monthly i.m., sixth month

## C[C@]12CC[C@@H]3c4ccc(O)cc4C[C@@H](CCCCCCCCC[S+]([O-])CCCC(F)(F)C(F)(F)F)[C@H]3[C@@H]1CC[C@@H]2O (stereo partly drawn) [ICI 182780, 7a-[9(4,4,5,5,pentafluoropentyl-sulphinyl)nonyl]oestra-1 ,3,5,(10)-triene-3,17,B-diol]
[1]
  Effect on endometrial proliferation: inhibited endometrial proliferation
[2]; after 8 months of treatment, median pretreatment 100, P=NS
  Serum SHBG, median level: 55 nM
[2]; first 3 months of administration, median pre-treatment 26, P<0.005
  Serum LH, median post-treatment value: 42 IU 1-1
[2]; first 3 months of administration, median pre-treatment 26, P<0.05
  Serum FSH, median post-treatment value: 52 IU l-1
[2]; in vivo
  Change in serum SHBG: no significant changes; also recorded: overall trend to decrease
  Change in serum gonadotrophin levels after the first 3 months: no further significant overall changes
[2]; throughout the treatment period
  Change in serum prolactin: no significant changes; also recorded: did not change significantly
[3]; 19 patients
  Serious drug-related adverse events: No serious drug-related adverse events
[3]; direct questioning at each monthly attendance
  Vaginal dryness or altered libido: None of the patients reported
[3]; in vivo
  Frequency of side-effects: infrequent
  Full blood count and biochemical profile: No clinically significant changes
  Hot flushes and night sweats: not induced; also recorded: not associated with any alteration
  Injection-site events: erythema: a third patient had local erythema at the injection site on one occasion
[3]; long-acting formulation, 5 ml i.m.
  Local tolerance at the site of injection: well tolerated locally
[3]; of 19 patients
  Patients reporting minor systemic adverse events: two
[3]; one occasion each
  Injection-site events: bruising, tenderness: One patient developed bruising over the buttock and a second developed tenderness at the injection site
[4]; [5]
  AUC, first month: 140.5 ng·days/mL
  Mean end-of-month concentration, first month: 3.1 ng/mL
[4]; [6]
  AUC, sixth month: 206.8 ng·days/mL
  Mean end-of-month concentration, sixth month: 5.6 ng/mL
[4]; after 6 months of treatment
  Difference in Cmax and AUC, partial response vs no change patients: no significant difference
[4]; after 6 months vs month 1
  Increase in AUC: 50%
  Increase in mean end of month drug levels: 80%
[4]; female, im, 250 mg, 250 mg monthly i.m., first month, read-out: Cmax, first month (mean)
  Cmax: 10.5 ng/mL
[4]; female, im, 250 mg, 250 mg monthly i.m., sixth month, read-out: Cmax, sixth month (mean)
  Cmax: 12.6 ng/mL
[4]; female, intramuscular, no change patients, read-out: Median Cmax at month 6
  Cmax: 12.8 ng/mL
[4]; female, intramuscular, no change patients, read-out: Median Cmax on entry
  Cmax: 9.3 ng/mL
[4]; female, intramuscular, partial response patients, read-out: Median Cmax at month 6
  Cmax: 11 ng/mL
[4]; female, intramuscular, partial response patients, read-out: Median Cmax on entry
  Cmax: 7.7 ng/mL
[4]; female, intramuscular, progressive disease patients, read-out: Median Cmax on entry
  Cmax: 5.6 ng/mL
[4]; following both the 100 mg and 250 mg doses
  Release of drug from slow release formulation: continuous release of drug
[4]; intramuscular, 100 mg, patient 1 (progressive disease), 100 mg dose at entry, read-out: Cmax on entry
  Cmax: 4.4 ng/mL
[4]; intramuscular, 100 mg, patient 2 (no change), 100 mg dose at entry, read-out: Cmax on entry
  Cmax: 1.8 ng/mL
[4]; intramuscular, 100 mg, patient 3 (partial response), 100 mg dose at entry, read-out: Cmax on entry
  Cmax: 2.9 ng/mL
[4]; intramuscular, 100 mg, patient 4 (progressive disease), 100 mg dose at entry, read-out: Cmax on entry
  Cmax: 1.6 ng/mL
[4]; intramuscular, 250 mg, patient 2 (no change), 250 mg, read-out: Cmax at month 6
  Cmax: 7.5 ng/mL
[4]; intramuscular, 250 mg, patient 3 (partial response), 250 mg, read-out: Cmax at month 6
  Cmax: 9.9 ng/mL
[4]; intramuscular, 250 mg, patient 5 (partial response), 250 mg, read-out: Cmax at month 6
  Cmax: 17.6 ng/mL
[4]; intramuscular, 250 mg, patient 5 (partial response), 250 mg, read-out: Cmax on entry
  Cmax: 17.4 ng/mL
[4]; intramuscular, 250 mg, patient 6 (partial response), 250 mg, read-out: Cmax on entry
  Cmax: 7.7 ng/mL
[4]; intramuscular, 250 mg, patient 7 (progressive disease), 250 mg, read-out: Cmax on entry
  Cmax: 5.5 ng/mL
[4]; intramuscular, 250 mg, patient 8 (partial response), 250 mg, read-out: Cmax at month 6
  Cmax: 10 ng/mL
[4]; intramuscular, 250 mg, patient 8 (partial response), 250 mg, read-out: Cmax on entry
  Cmax: 5.9 ng/mL
[4]; intramuscular, 250 mg, patient 9 (progressive disease), 250 mg, read-out: Cmax on entry
  Cmax: 9.7 ng/mL
[4]; intramuscular, 250 mg, patient 10 (partial response), 250 mg, read-out: Cmax at month 6
  Cmax: 9.1 ng/mL
[4]; intramuscular, 250 mg, patient 10 (partial response), 250 mg, read-out: Cmax on entry
  Cmax: 14.8 ng/mL
[4]; intramuscular, 250 mg, patient 11 (progressive disease), 250 mg, read-out: Cmax on entry
  Cmax: 29.9 ng/mL
[4]; intramuscular, 250 mg, patient 12 (no change), 250 mg, read-out: Cmax at month 6
  Cmax: 12.2 ng/mL
[4]; intramuscular, 250 mg, patient 12 (no change), 250 mg, read-out: Cmax on entry
  Cmax: 7.2 ng/mL
[4]; intramuscular, 250 mg, patient 13 (progressive disease), 250 mg, read-out: Cmax at month 6
  Cmax: 15.8 ng/mL
[4]; intramuscular, 250 mg, patient 13 (progressive disease), 250 mg, read-out: Cmax on entry
  Cmax: 5.6 ng/mL
